From patent US7414061B2, “Aryl-isoxazol-4-yl-imidazole derivatives” (Hoffmann-La Roche Inc., priority 2005, dated 2008) come the findings set out here.

The first assay concerns the target T1, GABA A receptor α5β3γ2 (hα5) (Homo sapiens, UniProt P18507+P31644).
T1 construct: expressed in transfected cells; host or cells: HEK293 (transiently transfected), membrane preparation
Description: [3H]flumazenil competition binding assay, human GABA A α5β3γ2.
Conditions: not given
The method, then:
The affinity of compounds at GABA A receptor subtypes was measured by competition for [3H]flumazenil (85 Ci/mmol; Roche) binding to HEK293 cells expressing rat (stably transfected) or human (transiently transfected) receptors of composition α1β3γ2, α2β3γ2, α3β3γ2 and α5β3γ2.
Cell pellets were suspended in Krebs-tris buffer (4.8 mM KCl, 1.2 mM CaCl2, 1.2 mM MgCl2, 120 mM NaCl, 15 mM Tris; pH 7.5; binding assay buffer), homogenized by polytron for ca. 20 sec on ice and centrifuged for 60 min at 4° C. (50000 g; Sorvall, rotor: SM24=20000 rpm). The cell pellets were resuspended in Krebs-tris buffer and homogenized by polytron for ca. 15 sec on ice. Protein was measured (Bradford method, Bio-Rad) and aliquots of 1 mL were prepared and stored at −80° C.
Radioligand binding assays were carried out in a volume of […] (96-well plates) which contained […] of cell membranes, [3H]flumazenil at a concentration of 1 nM for α1, α2, α3 subunits and 0.5 nM for α5 subunits and the test compound in the range of […]. Nonspecific binding was defined by 10^−5 M diazepam and typically represented less than 5% of the total binding. Assays were incubated to equilibrium for 1 hour at 4° C. and harvested onto GF/C uni-filters (Packard) by filtration using a Packard harvester and washing with ice-cold wash buffer (50 mM Tris; pH 7.5). After drying, filter-retained radioactivity was detected by liquid scintillation counting. Ki values were calculated using Excel-Fit (Microsoft) and are the means of two determinations.
For `C#CCNC(=O)c1ccc(-n2cnc(-c3c(-c4ccccc4)noc3C)c2)cc1` [Example 72, 4-[4-(5-Methyl-3-phenyl-isoxazol-4-yl)-imidazol-1-yl]-N-prop-2-ynyl-benzamide], the Ki stood at 13.2 nM.

The assay is the same for the next values; noted with them: displacement of [3H]flumazenil (0.5 nM) from HEK293 cell membranes expressing α5β3γ2; means of two determinations; read-out: Ki[nM] hα5.
For `O=[N+]([O-])c1ccc(-n2cnc(-c3c(-c4ccccc4)noc3C3CC3)c2)cc1` [Example 136, 5-Cyclopropyl-4-[1-(4-nitro-phenyl)-1H-imidazol-4-yl]-3-phenyl-isoxazole], the Ki was determined as 1.71 nM.
Still for that read-out and setting: for `Cc1onc(-c2ccccc2)c1-c1cn(-c2ccc(C(=O)NC3CCOCC3)cc2)cn1` [Example 77, 4-[4-(5-Methyl-3-phenyl-isoxazol-4-yl)-imidazol-1-yl]-N-(tetrahydro-pyran-4-yl)-benzamide] the value was 27.3 nM; for `Cc1onc(-c2ccccc2)c1-c1cn(-c2ccccn2)cn1` [Example 32, 2-[4-(5-Methyl-3-phenyl-isoxazol-4-yl)-imidazol-1-yl]-pyridine], 19.3 nM; for `COC(=O)c1ccc(-n2cnc(-c3c(-c4ccc(F)cc4)noc3C)c2)cc1` [Example 125, 4-{4-[3-(4-Fluoro-phenyl)-5-methyl-isoxazol-4-yl]-imidazol-1-yl}-benzoic acid methyl ester], 13.6 nM.
The same measure, in the same setting: for `Cc1onc(-c2ccc(Br)cc2)c1-c1cn(-c2ncccn2)cn1` [Example 51, 2-{4-[3-(4-Bromo-phenyl)-5-methyl-isoxazol-4-yl]-imidazol-1-yl}-pyrimidine] the value was 28.5 nM; for `CSc1ccc(-n2cnc(-c3c(-c4ccccc4)noc3C)c2)cc1` [Example 21, 5-Methyl-4-[1-(4-methylsulfanyl-phenyl)-1H-imidazol-4-yl]-3-phenyl-isoxazole], 31.5 nM.
Still for that read-out and setting: for `Cc1onc(-c2ccccc2)c1-c1cn(-c2ccc([N+](=O)[O-])cc2)c(COCc2ccccc2)n1` [Example 63, 4-[2-Benzyloxymethyl-1-(4-nitro-phenyl)-1H-imidazol-4-yl]-5-methyl-3-phenyl-isoxazole] the value was 14.4 nM.
As to `Cc1onc(-c2ccccc2)c1-c1cn(-c2cccc(Br)c2)cn1` [Example 7, 4-[1-(3-Bromo-phenyl)-1H-imidazol-4-yl]-5-methyl-3-phenyl-isoxazole], the Ki stood at 30.9 nM.
Consider `Cc1onc(-c2ccc(F)cc2)c1-c1cn(-c2ccc(F)cc2)cn1` [Example 114, 3-(4-Fluoro-phenyl)-4-[1-(4-fluoro-phenyl)-1H-imidazol-4-yl]-5-methyl-isoxazole], for which the Ki came to 31 nM.
The same measure, in the same setting: as for `CC(=O)c1ccc(-n2cnc(-c3c(-c4ccc(F)cc4)noc3CO)c2)cc1` [Example 140, 1-(4-{4-[3-(4-Fluoro-phenyl)-5-hydroxymethyl-isoxazol-4-yl]-imidazol-1-yl}-phenyl)-ethanone], the figure is 9.8 nM; as for `CC(=O)c1ccc(-n2cnc(-c3c(-c4ccccc4)noc3C3CC3)c2)cc1` [Example 135, 1-{4-[4-(5-Cyclopropyl-3-phenyl-isoxazol-4-yl)-imidazol-1-yl]-phenyl}-ethanone], 1.64 nM.
Still for that read-out and setting: as for `Cc1onc(-c2ccccc2)c1-c1cn(-c2ccc([N+](=O)[O-])cc2)c(COCc2ccc(F)cc2)n1` [Example 154, 4-[2-(4-Fluoro-benzyloxymethyl)-1-(4-nitro-phenyl)-1H-imidazol-4-yl]-5-methyl-3-phenyl-isoxazole], the figure is 13.5 nM; as for “4-{4-[3-(3-Fluoro-phenyl)-5-methyl-isoxazol-4-yl]-imidazol-1-yl}-N-[2-(1H-imidazol-4-yl)-ethyl]-benzamide [Example 104]”, 31.5 nM; as for `CCCc1ccc(-n2cnc(-c3c(-c4ccccc4)noc3C)c2)cc1` [Example 9, 5-Methyl-3-phenyl-4-[1-(4-propyl-phenyl)-1H-imidazol-4-yl]-isoxazole], 25.5 nM.
The same measure, in the same setting: for `Cc1onc(-c2ccccc2)c1-c1cn(-c2ccc(C(=O)NCc3cccnc3)cc2)cn1` [Example 78, 4-[4-(5-Methyl-3-phenyl-isoxazol-4-yl)-imidazol-1-yl]-N-pyridin-3-ylmethyl-benzamide] the value was 12.8 nM.
Turning to `Cc1onc(-c2cccc(F)c2)c1-c1cn(-c2ccc(C(=O)NCCO)cc2)cn1` [Example 101, 4-{4-[3-(3-Fluoro-phenyl)-5-methyl-isoxazol-4-yl]-imidazol-1-yl}-N-(2-hydroxy-ethyl)-benzamide], the Ki came to 27 nM.
With `Cc1onc(-c2cccc(F)c2)c1-c1cn(-c2ccc(C(=O)NC3CC3)cc2)cn1` [Example 98, N-Cyclopropyl-4-{4-[3-(3-fluoro-phenyl)-5-methyl-isoxazol-4-yl]-imidazol-1-yl}-benzamide], the Ki was 17.7 nM.
The same measure, in the same setting: as for `Cc1onc(-c2ccc(F)cc2)c1-c1cn(-c2ccc([N+](=O)[O-])cc2)cn1` [Example 47, 3-(4-Fluoro-phenyl)-5-methyl-4-[1-(4-nitro-phenyl)-1H-imidazol-4-yl]-isoxazole], the figure is 16.6 nM; as for `Cc1cccc(COCc2nc(-c3c(-c4ccccc4)noc3C)cn2-c2ccc([N+](=O)[O-])cc2)n1` [Example 162, 2-Methyl-6-[4-(5-methyl-3-phenyl-isoxazol-4-yl)-1-(4-nitro-phenyl)-1H-imidazol-2-ylmethoxymethyl]-pyridine], 28.2 nM.
For the compound `Cc1onc(-c2ccccc2)c1-c1cn(-c2ccc([N+](=O)[O-])cc2)c(COCc2cccc(F)c2)n1` [Example 158, 4-[2-(3-Fluoro-benzyloxymethyl)-1-(4-nitro-phenyl)-1H-imidazol-4-yl]-5-methyl-3-phenyl-isoxazole], the Ki was 17 nM.
Same read-out and setting: for `Cc1onc(-c2ccc(F)cc2)c1-c1cn(-c2cccnc2)cn1` [Example 124, 3-{4-[3-(4-Fluoro-phenyl)-5-methyl-isoxazol-4-yl]-imidazol-1-yl}-pyridine] the value was 27.2 nM.
Same read-out and setting: as for `Cc1onc(-c2ccccc2)c1-c1cn(-c2ccc([N+](=O)[O-])cc2)c(C=O)n1` [Example 149, 4-(5-Methyl-3-phenyl-isoxazol-4-yl)-1-(4-nitro-phenyl)-1H-imidazole-2-carbaldehyde], the figure is 29.9 nM.
On the same count and under the same terms, as for `Cc1onc(-c2ccc(F)cc2)c1-c1cn(-c2cccc(F)c2)cn1` [Example 119, 3-(4-Fluoro-phenyl)-4-[1-(3-fluoro-phenyl)-1H-imidazol-4-yl]-5-methyl-isoxazole], the figure is 33.7 nM; as for `Cc1onc(-c2ccccc2)c1-c1cn(-c2ccc([N+](=O)[O-])cc2)c(CO)n1` [Example 147, [4-(5-Methyl-3-phenyl-isoxazol-4-yl)-1-(4-nitro-phenyl)-1H-imidazol-2-yl]-methanol], 18.1 nM; as for `Cc1onc(-c2ccccc2)c1-c1cn(-c2cccc(Cl)c2)cn1` [Example 5, 4-[1-(3-Chloro-phenyl)-1H-imidazol-4-yl]-5-methyl-3-phenyl-isoxazole], 29.1 nM.
Consider `Cc1onc(-c2ccccc2)c1-c1cn(-c2cccc(F)c2)cn1` [Example 4, 4-[1-(3-Fluoro-phenyl)-1H-imidazol-4-yl]-5-methyl-3-phenyl-isoxazole], for which the Ki was 33.1 nM.
As for `Cc1onc(-c2ccccc2)c1-c1cn(-c2ccccc2)c(COCc2ccccc2)n1` [Example 146, 4-(2-Benzyloxymethyl-1-phenyl-1H-imidazol-4-yl)-5-methyl-3-phenyl-isoxazole], the Ki was 17.1 nM.
Consider `Cc1onc(-c2ccc(F)cc2)c1-c1cn(-c2ccc(C(=O)NC3CCCC3)cc2)cn1` [Example 126, N-Cyclopentyl-4-{4-[3-(4-fluoro-phenyl)-5-methyl-isoxazol-4-yl]-imidazol-1-yl}-benzamide], for which the Ki is 11.9 nM.
Regarding `Cc1onc(-c2ccccc2)c1-c1cn(-c2ccc([N+](=O)[O-])cc2)cn1` [Example 13, 5-Methyl-4-[1-(4-nitro-phenyl)-1H-imidazol-4-yl]-3-phenyl-isoxazole], the Ki was found to be 11.9 nM.
Take `CC(=O)c1ccc(-n2cnc(-c3c(-c4ccccc4F)noc3C)c2)cc1` [Example 36, 1-(4-{4-[3-(2-Fluoro-phenyl)-5-methyl-isoxazol-4-yl]-imidazol-1-yl}-phenyl)-ethanone]: the Ki was found to be 7.8 nM.
Turning to `Cc1onc(-c2ccccc2)c1-c1cn(-c2cccc([N+](=O)[O-])c2)cn1` [Example 82, 5-Methyl-4-[1-(3-nitro-phenyl)-1H-imidazol-4-yl]-3-phenyl-isoxazole], the Ki was found to be 19.5 nM.
For `Cc1onc(-c2ccccc2)c1-c1cn(-c2ccc([N+](=O)[O-])cc2)c(CCl)n1` [Example 148, 4-[2-Chloromethyl-1-(4-nitro-phenyl)-1H-imidazol-4-yl]-5-methyl-3-phenyl-isoxazole], the Ki stood at 23.3 nM.
As to `Cc1onc(-c2ccccc2)c1-c1cn(-c2ccc(C(=O)NC3CCCC3)cc2)cn1` [Example 76, N-Cyclopentyl-4-[4-(5-methyl-3-phenyl-isoxazol-4-yl)-imidazol-1-yl]-benzamide], the Ki was 10.9 nM.
On to `Cc1onc(-c2ccccc2)c1-c1cn(-c2ncccn2)c(COCc2ccccc2)n1` [Example 66, 2-[2-Benzyloxymethyl-4-(5-methyl-3-phenyl-isoxazol-4-yl)-imidazol-1-yl]-pyrimidine], for which the Ki came out at 6.7 nM.

One may read the Ki as a dissociation constant, usually derived from enzyme kinetics or from competition with a known ligand.
